Experimental data published in ChEMBL document CHEMBL1681651, “A broad spectrum anticancer nucleoside with selective toxicity against human colon cells in vitro” (2011).

Columns and labels:
Type in all cases: functional
UO-31 = assay: Growth inhibition of human UO31 cells after 48 hrs by […] growth inhibition assay; details: UO-31, 48 h
DU-145 [1] = assay: Growth inhibition of human DU145 cells assessed as cell growth at 10 uM after 48 hrs by SRB assay; details: DU-145, 48 h, read-out: Activity
IGROV-1 = assay: Growth inhibition of human IGROV1 cells assessed as cell growth at 0.1 uM after 48 hrs by SRB assay; details: IGROV-1, 48 h, read-out: Activity
KM12 = assay: Growth inhibition of human KM12 cells assessed as cell growth at 10 uM after 48 hrs by SRB assay; details: KM12, 48 h, read-out: Activity
SNB-19 = assay: Growth inhibition of human SNB19 cells assessed as cell growth at 10 uM after 48 hrs by SRB assay; details: SNB-19, 48 h, read-out: Activity
NCI-H226 = assay: Growth inhibition of human NCI-H226 cells assessed as cell growth at 1 uM after 48 hrs by SRB assay; details: NCI-H226, 48 h, read-out: Activity
ACHN = assay: Growth inhibition of human ACHN cells assessed as cell growth at 0.1 uM after 48 hrs by SRB assay; details: read-out: Activity
HCT-15 = assay: Growth inhibition of human HCT15 cells assessed as cell growth at 0.1 uM after 48 hrs by SRB assay; details: HCT-15, 48 h, read-out: Activity
HT-29 = assay: Growth inhibition of human HT-29 cells assessed as cell growth at 0.1 uM after 48 hrs by SRB assay; details: HT-29, 48 h, read-out: Activity
LOX IMVI = assay: Growth inhibition of human LOXIMVI cells assessed as cell growth at 100 uM after 48 hrs by SRB assay; details: read-out: Activity
NCI-H23 [2] = assay: Growth inhibition of human NCI-H23 cells assessed as cell growth at 1 uM after 48 hrs by SRB assay; details: NCI-H23, 48 h, read-out: Activity
NCI-H23 [3] = assay: Growth inhibition of human NCI-H23 cells assessed as cell growth at 0.1 uM after 48 hrs by SRB assay; details: NCI-H23, 48 h, read-out: Activity
BT-549 = assay: Growth inhibition of human BT549 cells assessed as cell growth at 0.1 uM after 48 hrs by SRB assay; details: BT-549, 48 h, read-out: Activity
A549 = assay: Growth inhibition of human A549 cells after 48 hrs by […] growth inhibition assay; details: A549, 48 h
SK-MEL-2 = assay: Growth inhibition of human SK-MEL-2 cells after 48 hrs by […] growth inhibition assay; details: SK-MEL-2, 48 h
OVCAR-3 [4] = assay: Growth inhibition of human OVCAR3 cells assessed as cell growth at 1 mM after 48 hrs by SRB assay; details: OVCAR-3, 48 h, read-out: Activity
SN12C = assay: Growth inhibition of human SN12C cells assessed as cell growth at 0.1 uM after 48 hrs by SRB assay; details: read-out: Activity
MDA-MB-435 = assay: Growth inhibition of human MDA-MB-435 cells assessed as cell growth at 1 uM after 48 hrs by SRB assay; details: MDA-MB-435, 48 h, read-out: Activity
SK-MEL-5 = assay: Growth inhibition of human SK-MEL-5 cells assessed as cell growth at 1 mM after 48 hrs by SRB assay; details: SK-MEL-5, 48 h, read-out: Activity
OVCAR-3 [5] = assay: Growth inhibition of human OVCAR3 cells assessed as cell growth at 1 uM after 48 hrs by SRB assay; details: OVCAR-3, 48 h, read-out: Activity
SF-295 [6] = assay: Growth inhibition of human SF295 cells assessed as cell growth at 1 mM after 48 hrs by SRB assay; details: SF-295, 48 h, read-out: Activity
TK-10 = assay: Growth inhibition of human TK10 cells after 48 hrs by […] growth inhibition assay; details: TK-10, 48 h
Malme-3M = assay: Growth inhibition of human MALME-3M cells assessed as cell growth at 1 uM after 48 hrs by SRB assay; details: read-out: Activity
OVCAR-4 = assay: Growth inhibition of human OVCAR4 cells assessed as cell growth at 1 uM after 48 hrs by SRB assay; details: OVCAR-4, 48 h, read-out: Activity
RXF 393 = assay: Growth inhibition of human RXF393 cells assessed as cell growth at 0.1 uM after 48 hrs by SRB assay; details: RXF 393, 48 h, read-out: Activity
HOP-92 = assay: Growth inhibition of human HOP92 cells after 48 hrs by […] growth inhibition assay; details: HOP-92, 48 h
T47D = assay: Growth inhibition of human T47D cells assessed as cell growth at 1 mM after 48 hrs by SRB assay; details: read-out: Activity
CCRF-CEM = assay: Growth inhibition of human CCRF-CEM cells after 48 hrs by […] growth inhibition assay
SK-MEL-28 = assay: Growth inhibition of human SK-MEL-28 cells assessed as cell growth at 10 uM after 48 hrs by SRB assay; details: SK-MEL-28, 48 h, read-out: Activity
DU-145 [7] = assay: Growth inhibition of human DU145 cells after 48 hrs by […] growth inhibition assay; details: DU-145, 48 h
OVCAR-8 = assay: Growth inhibition of human OVCAR8 cells assessed as cell growth at 10 uM after 48 hrs by SRB assay; details: OVCAR-8, 48 h, read-out: Activity
SF-295 [8] = assay: Growth inhibition of human SF295 cells assessed as cell growth at 1 uM after 48 hrs by SRB assay; details: SF-295, 48 h, read-out: Activity
[9] = read-out: LC50 (the source's name)
[10] = read-out: pLC50 (the source's name) (converted)

Compound: CCOC(=O)C[C@H]1[C@@H](O[Si](C)(C)C(C)(C)C)[C@H](n2cnc3c(NC(=O)Nc4ccccc4)ncnc32)O[C@@H]1CNC(=O)NC
- GI50 (UO-31; read-out: GI50): 12.1 µM
- CC50 (UO-31; [9]): 71.7 µM
- TGI (UO-31; read-out: TGI): 29.5 µM
- GI50 (UO-31; read-out: pGI50 (converted)): 12 µM
- CC50 (UO-31; [10]): 72.4 µM
- TGI (UO-31; read-out: pTGI (converted)): 29.5 µM
- growth at 10 µM (DU-145 [1]): 110%
- growth at 0.1 µM (IGROV-1): 94%
- growth at 10 µM (KM12): 105%
- growth at 10 µM (SNB-19): 87%
- growth at 1 µM (NCI-H226): 105%
- growth at 0.1 µM (ACHN): 107%
- growth at 0.1 µM (HCT-15): 99%
- growth at 0.1 µM (HT-29): 104%
- growth at 100 µM (LOX IMVI): 35%
- growth at 1 µM (NCI-H23 [2]): 100%
- growth at 0.1 µM (NCI-H23 [3]): 101%
- growth at 0.1 µM (BT-549): 104%
- GI50 (A549; read-out: GI50): 4.18 µM
- CC50 (A549; [9]): 79.1 µM
- TGI (A549; read-out: TGI): 19.2 µM
- GI50 (A549; read-out: pGI50 (converted)): 4.17 µM
- CC50 (A549; [10]): 79.4 µM
- TGI (A549; read-out: pTGI (converted)): 19.1 µM
- GI50 (SK-MEL-2; read-out: GI50): 5.42 µM
- CC50 (SK-MEL-2; [9]): > 100 µM
- TGI (SK-MEL-2; read-out: TGI): 33.1 µM
- GI50 (SK-MEL-2; read-out: pGI50 (converted)): 5.37 µM
- CC50 (SK-MEL-2; [10]): > 100 µM
- TGI (SK-MEL-2; read-out: pTGI (converted)): 33.1 µM
- growth at 1000 µM (OVCAR-3 [4]): -53%
- growth at 0.1 µM (SN12C): 101%
- growth at 1 µM (MDA-MB-435): 92%
- growth at 1000 µM (SK-MEL-5): 11%
- growth at 1 µM (OVCAR-3 [5]): 115%
- growth at 1000 µM (SF-295 [6]): 24%
- GI50 (TK-10; read-out: GI50): 12.4 µM
- CC50 (TK-10; [9]): > 100 µM
- TGI (TK-10; read-out: TGI): 40.5 µM
- GI50 (TK-10; read-out: pGI50 (converted)): 12.3 µM
- CC50 (TK-10; [10]): > 100 µM
- TGI (TK-10; read-out: pTGI (converted)): 40.7 µM
- growth at 1 µM (Malme-3M): 95%
- growth at 1 µM (OVCAR-4): 103%
- growth at 0.1 µM (RXF 393): 99%
- GI50 (HOP-92; read-out: GI50): < 0.01 µM
- CC50 (HOP-92; [9]): 41.2 µM
- GI50 (HOP-92; read-out: pGI50 (converted)): < 0.01 µM
- CC50 (HOP-92; [10]): 40.7 µM
- growth at 1000 µM (T47D): 13%
- GI50 (CCRF-CEM; read-out: GI50): 6.69 µM
- LC50 (lethal concentration, 50% net cell kill) (CCRF-CEM; read-out: LC50): > 100 µM
- TGI (CCRF-CEM; read-out: TGI): 88.6 µM
- GI50 (CCRF-CEM; read-out: pGI50 (converted)): 6.76 µM
- LC50 (lethal concentration, 50% net cell kill) (CCRF-CEM; read-out: pLC50 (converted)): > 100 µM
- TGI (CCRF-CEM; read-out: pTGI (converted)): 89.1 µM
- growth at 10 µM (SK-MEL-28): 100%
- CC50 (DU-145 [7]; [9]): 12.5 µM
- GI50 (DU-145 [7]; read-out: pGI50 (converted)): 5.01 µM
- CC50 (DU-145 [7]; [10]): 77.6 µM
- TGI (DU-145 [7]; read-out: pTGI (converted)): 19.5 µM
- growth at 10 µM (OVCAR-8): 98%
- growth at 1 µM (SF-295 [8]): 91%
